Laboratory results taken from paper PMC1924862, “X-ray structures of Na-GST-1 and Na-GST-2 two glutathione s-transferase from the human hookworm Necator americanus” (BMC Structural Biology, 2007).
Read-outs that look alike come from different tables or passages of the source.

Experiments:
Na-GST-2 = target: T1, Na-GST-2 (Necator americanus, UniProt D3U1A6); experiment: CDNB-glutathione conjugation, absorbance at […] nm; type: biochemical
T1 construct: homodimer; Nu class; glutathione carried over from fermentation
T1 sequence (D3U1A6 1-206): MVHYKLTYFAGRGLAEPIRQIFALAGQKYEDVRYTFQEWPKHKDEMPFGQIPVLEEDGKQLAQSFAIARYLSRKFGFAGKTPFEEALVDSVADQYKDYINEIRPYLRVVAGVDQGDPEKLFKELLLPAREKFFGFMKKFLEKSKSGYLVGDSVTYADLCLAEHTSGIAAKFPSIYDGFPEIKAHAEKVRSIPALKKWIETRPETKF

Na-GST-1 = target: T2, Na-GST-1 (Necator americanus, UniProt D3U1A5); experiment: CDNB-glutathione conjugation, absorbance at […] nm; type: biochemical
T2 construct: 206 residues ordered; homodimer; Nu class
T2 sequence (D3U1A5 1-206): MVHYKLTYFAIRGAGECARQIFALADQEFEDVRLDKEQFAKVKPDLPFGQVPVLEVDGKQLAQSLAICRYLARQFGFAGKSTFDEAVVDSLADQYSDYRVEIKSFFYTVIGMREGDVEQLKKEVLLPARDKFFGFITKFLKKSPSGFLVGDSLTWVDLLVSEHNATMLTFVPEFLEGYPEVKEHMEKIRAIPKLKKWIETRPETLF

| SMILES | IC50 (Na-GST-2) [µM] | IC50 (Na-GST-1; read-out: Na-GST-1) [µM] | IC50 (Na-GST-1) [µM] |
| --- | --- | --- | --- |
| CCCSc1ccc2nc(NC(=O)OC)[nH]c2c1 [albendazole] | 68 | 87 | – |
| [Cl][Sn]([c]1ccccc1)([c]1ccccc1)[c]1ccccc1 [chlorotriphenyltin] | 0.7 | – | 22 |
| O=C(C1CCCCC1)N1CC(=O)N2CCc3ccccc3C2C1 (stereo not drawn) [praziquantel] | 3300 | > 20000 | – |
